Experiment [1] addresses T1, FAAH (Homo sapiens, UniProt O00519).
T1 construct: the U-937 microsomal fraction (final concentration of 6 μg/well) prepared in (1); endogenous in cells; host or cells: U-937 cells (microsomal fraction)
T1 sequence (O00519 1-579): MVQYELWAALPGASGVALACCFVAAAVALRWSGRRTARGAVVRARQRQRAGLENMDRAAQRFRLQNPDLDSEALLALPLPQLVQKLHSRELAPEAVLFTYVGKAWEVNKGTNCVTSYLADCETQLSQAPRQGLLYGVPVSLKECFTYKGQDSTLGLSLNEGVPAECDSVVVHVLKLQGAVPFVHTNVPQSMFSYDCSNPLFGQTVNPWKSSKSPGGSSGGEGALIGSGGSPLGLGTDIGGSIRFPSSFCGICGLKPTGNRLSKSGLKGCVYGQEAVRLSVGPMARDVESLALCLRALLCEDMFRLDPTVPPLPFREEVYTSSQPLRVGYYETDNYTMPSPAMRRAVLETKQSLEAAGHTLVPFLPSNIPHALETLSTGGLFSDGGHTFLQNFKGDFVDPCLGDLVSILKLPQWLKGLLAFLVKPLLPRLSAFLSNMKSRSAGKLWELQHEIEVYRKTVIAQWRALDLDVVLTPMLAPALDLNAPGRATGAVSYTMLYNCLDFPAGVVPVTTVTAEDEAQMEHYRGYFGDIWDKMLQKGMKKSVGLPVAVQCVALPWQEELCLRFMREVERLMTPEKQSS
The experiment can be described thus: In vitro FAAH inhibitory activity using U-937 microsomal fraction (AAMCA substrate, fluorescence). As to conditions: 6 μg/well, 120 min incubation at room temperature, read-out: FAAH Inhibitory Activity IC50 U-937 microsome. Type of experiment: biochemical. As for the experimental part:
The cultured U-937 cells were harvested, and 0.33-fold volume of buffer solution (50 mmol/L HEPES-NaOH (pH 7.4), 1 mmol/L EDTA, Complete EDTA-free (Roche Diagnostics)) was added to the cells, which was suspended and homogenized. After ultrasonication, the cells were further homogenized and centrifuged (600 g, 10 mins., 4° C.) to collect the supernatant. The supernatant collected was again centrifuged (12000 g, 20 mins., 4° C.), and the supernatant was ultracentrifuged (100000 g, 60 mins., 4° C.) to collect the precipitates. The precipitates were suspended in a buffer solution (50 mmol/L HEPES-NaOH (pH 7.4), 1 mmol/L EDTA) of 5-fold volume with respect to the wet weight of the precipitates to quantify the protein level with the BCA Protein Assay (PIERCE).
(§1) In a 384 well plate (Corning), were added the dilutions of compounds to be tested in various concentrations with 30 μL of a buffer solution (50 mmol/L HEPES (pH 7.4), 1 mmol/L EDTA, 0.1% bovine serum albumin) and the U-937 microsomal fraction (final concentration of 6 μg/well) prepared in (1) or the rat brain microsomal fraction (final concentration of 4 μg/well) prepared in (2), followed by preincubation for 5 minutes at room temperature. AAMCA (SIGMA, (final concentration of 4 mmol/L) as a substrate was added thereto, and the U-937 microsomal fraction was incubated for 120 minutes and the rat brain microsomal fraction for 30 minutes, at room temperature. Before and after the incubation, fluorescence counts were measured using EnVision 2000 (Perkin Elmer) at an excitation wavelength of 355 nm with an emission wavelength of 460 nm to calculate the difference. The count of the well added with the solvent in place of the compound tested and the count of the well added with no microsome were made 0% and 100%, respectively, and the inhibitory activity of each compound tested was determined.
(§2) The FAAH inhibitory activity of the test compound was expressed by IC50 value. The compound of the present invention showing the IC50 value smaller than 0.1 μmol/L, the compound showing the IC50 value not smaller than 0.1 μmol/L and smaller than 1 μmol/L and the compound showing the IC50 value not smaller than 1 μmol/L were designated as +++, ++ and +, respectively, which are shown in TABLE 1.

For experiment [2], the target named is T2, FAAH (Rattus norvegicus, UniProt P97612).
T2 construct: the rat brain microsomal fraction (final concentration of 4 μg/well) prepared in (2); from tissue; host or cells: brain of male Sprague-Dawley rats (microsomal fraction)
T2 sequence (P97612 1-579): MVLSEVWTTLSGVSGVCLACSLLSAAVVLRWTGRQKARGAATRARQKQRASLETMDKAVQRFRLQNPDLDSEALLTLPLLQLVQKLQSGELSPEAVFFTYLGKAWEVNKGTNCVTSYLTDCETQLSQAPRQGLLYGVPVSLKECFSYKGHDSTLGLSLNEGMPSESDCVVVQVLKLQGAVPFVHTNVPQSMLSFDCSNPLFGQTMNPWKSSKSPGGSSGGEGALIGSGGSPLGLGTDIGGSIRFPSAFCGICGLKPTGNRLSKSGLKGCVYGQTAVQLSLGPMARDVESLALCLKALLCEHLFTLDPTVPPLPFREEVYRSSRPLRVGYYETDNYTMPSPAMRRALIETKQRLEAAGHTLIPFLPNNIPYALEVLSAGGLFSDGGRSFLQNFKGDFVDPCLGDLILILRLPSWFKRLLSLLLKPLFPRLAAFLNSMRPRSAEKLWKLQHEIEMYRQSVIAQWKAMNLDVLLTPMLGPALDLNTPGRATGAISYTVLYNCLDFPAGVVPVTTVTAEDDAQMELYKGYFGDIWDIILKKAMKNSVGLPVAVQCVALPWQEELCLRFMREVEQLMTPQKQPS
Put plainly: In vitro FAAH inhibitory activity using rat brain microsomal fraction (AAMCA substrate, fluorescence). As to conditions: 4 μg/well, 30 min incubation at room temperature, read-out: FAAH Inhibitory Activity IC50 Rat brain microsome. In kind it is biochemical. As for the experimental part:
Male Sprague-Dawley (SD) rats of 10 weeks old were sacrificed by decapitation and the brains were removed. To the brains was added a buffer solution (50 mmol/L HEPES (pH 8.0), 1 mmol/L EDTA, 0.32 mol/L sucrose, Complete EDTA-free (Roche Diagnostics)) of 5-fold volume with respect to the brain wet weight, which was homogenized in a Potter homogenizer. The homogenate was centrifuged (9000 g, 10 mins., 4° C.) to collect the supernatant. The supernatant was further ultracentrifuged (105000 g, 60 mins., 4° C.) to collect the precipitates. The precipitates were suspended in a buffer solution (50 mmol/L HEPES (pH 8.0), 1 mmol/L EDTA) of ¼ volume with respect to the wet weight of the precipitates to quantify the protein level with the BCA Protein Assay (PIERCE).
as §1, §2

From patent publication US20130029978A1, “NOVEL ARYL UREA DERIVATIVE” (MOCHIDA PHARMACEUTICAL CO., LTD., priority 2009, published 2013) come the findings set out here.

Some results are limits rather than exact numbers.

As a reminder, the IC50 is the concentration needed to halve the response being measured. As to `O=C(Nc1ccccc1)N1CCC(c2noc3cc(F)ccc23)CC1` [Example 1, N-Phenyl-4-(6-fluoro-1,2-benzisoxazo-3-yl)piperidine-1-carboxamide], the IC50 at FAAH [1] is 100 to 1000 nM; on FAAH [2] it was greater than 1000 nM.

As for `O=C(Nc1cccnn1)N1CCN(C2CCCOc3cc(C(F)(F)F)ccc32)CC1` (centres unmarked) [Example 10, N-Pyridazin-3-yl-4-[8-(trifluoromethyl)-2,3,4,5-tetrahydrobenz-1-oxepin-5-yl]piperazine-1-carboxamide], the IC50 on FAAH [1] and on FAAH [2] was 100 to 1000 nM throughout.

Turning to `Cc1ccc(NC(=O)N2CCN(C3CCOc4cc(C(F)(F)F)ccc43)CC2)cn1` (centres unmarked) [Example 18, N-(6-Methyl-pyridine-3-yl)-4-[7-(trifluoromethyl)-3,4-dihydro-2H-1-benzopyran-4-yl]piperazine-1-carboxamide], the concentration for half-maximal inhibition (IC50) on FAAH [1] was less than 100 nM; at FAAH [2], 100 to 1000 nM.

As for `O=C(Nc1cccnn1)N1CCN(C2CCOc3ccc(Oc4ccc(C(F)(F)F)cn4)cc32)CC1` (centres unmarked) [Example 5, N-Pyridazin-3-yl-4-[6-[[5-(trifluoromethyl)-2-pyridinyl]oxy]-3,4-dihydro-2H-1-benzopyran-4-yl]piperazine-1-carboxamide], the IC50 on FAAH [1] and at FAAH [2] was 100 to 1000 nM in each case.

As to `O=C(Nc1nccs1)N1CCN(C2CCOc3cc(C(F)(F)F)ccc32)CC1` (centres unmarked) [Example 22, N-(1,3-Thiazol-2-yl)-4-[7-(trifluoromethyl)-3,4-dihydro-2H-1-benzopyran-4-yl]piper azine-1-carboxamide], the 50% inhibitory concentration (IC50) at FAAH [1] and on FAAH [2] was greater than 1000 nM in each case.

Consider “N-(6-Methoxypyridazin-2-yl)-4-[7-(trifluoromethyl)-3,4-dihydro-2H-1-benzopyran-4-yl]piperazine-1-carboxamide [Example 21]”, for which the 50% inhibitory concentration (IC50) at FAAH [1] and on FAAH [2] was 100 to 1000 nM in each case.

Consider `O=C(Nc1cccnn1)N1CCC(N2CCOc3cc(C(F)(F)F)ccc32)CC1` [Example 24, N-Pyridazin-3-yl-4-[7-(trifluoromethyl)-2,3-dihydro-1,4-benzoxazin-4-yl]piperidine-1-carboxamide], for which the half-maximal inhibitory concentration (IC50) was less than 100 nM at FAAH [1] and 100 to 1000 nM on FAAH [2].

Take `O=C(Nc1cccnc1)N1CCN(C2CCOc3cc(C(F)(F)F)ccc32)CC1` (centres unmarked) [Example 17, N-Pyridine-3-yl-4-[7-(trifluoromethyl)-3,4-dihydro-2H-1-benzopyran-4-yl]piperazine-1-carboxamide]: the half-inhibitory concentration (IC50) at FAAH [1] and at FAAH [2] was less than 100 nM each time.

Take `O=C(Nc1ccccc1)N1CCN(C2CCOc3cc(C(F)(F)F)ccc32)C(=O)C1` (centres unmarked) [Example 15, N-Phenyl-3-yl-4-[7-(trifluoromethyl)-3,4-dihydro-2H-1-benzopyran-4-yl]-3-oxo-piperazine-1-carboxamide]: the 50% inhibitory concentration (IC50) on FAAH [1] and at FAAH [2] was 100 to 1000 nM each time.

Take `O=C(Nc1cnccn1)N1CCN(C2CCOc3cc(C(F)(F)F)ccc32)CC1` (centres unmarked) [Example 52, N-(Pyrazin-2-yl)-4-[7-(trifluoromethyl)-3,4-dihydro-2H-chromen-4-yl]piperazine-1-carboxamide]: the half-maximal inhibitory concentration (IC50) on FAAH [1] and on FAAH [2] was less than 100 nM in each case.

In the case of `CC1(C)CC(N2CCN(C(=O)Nc3cccnn3)CC2)c2ccc(C(F)(F)F)cc2O1` (centres unmarked) [Example 9, N-Pyridazin-3-yl-4-[2,2-dimethyl-7-(trifluoromethyl)-3,4-dihydro-2H-1-benzopyran-4-yl]piperazine-1-carboxamide], the IC50 at FAAH [1] is greater than 1000 nM; at FAAH [2], 100 to 1000 nM.

`O=C(Nc1cccnc1)N1CCN(C2CCOc3c2ccc(F)c3F)CC1` (centres unmarked) [Example 35, 4-(7,8-Difluoro-3,4-dihydro-2H-chromen-4-yl)-N-(pyridine-3-yl)piperazine-1-carboxamide]: the half-inhibitory concentration (IC50) on FAAH [1] and on FAAH [2] was less than 100 nM throughout.

Turning to `O=C(Nc1cccnn1)N1CCN(C2CCOc3cc(C(F)(F)F)c(F)cc32)CC1` (centres unmarked) [Example 12, N-Pyridazin-3-yl-4-[6-fluoro-7-(trifluoromethyl)-3,4-dihydro-2H-1-benzopyran-4-yl]piperazine-1-carboxamide], the concentration for half-maximal inhibition (IC50) on FAAH [1] is 100 to 1000 nM; on FAAH [2], less than 100 nM.
